Results published in patent publication US20250122191A1, “COMPOUNDS AS BCL-2 INHIBITORS” (Fochon Biosciences, Ltd, priority 2021, published 2025).

Tests used:
[1] = tested on: Toledo cells; test: Cell proliferation assay (MTS), Toledo cells; type: cell-based; conditions: Homo sapiens, 72 h
In short: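 Toledo cells (RPMI-1640, 10% FBS) seeded at 30000 cells/well, rested 4 h, then exposed 72 h at 37 °C, 5% CO2 to compound at nine final concentrations, 1.5–10000 nM. Viability by MTS (2 h), absorbance at 490 nm. IC50 from the concentration-response.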

[2] = tested on: RS4;11-BCL-2 F104L cells; test: Cell proliferation assay (MTS), RS4;11-BCL-2 F104L engineered cells; type: cell-based; conditions: Homo sapiens, 120 h, read-out: RS4, 11 BCL2-F104L IC50
In short: (§1)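 RS4;11 cells stably overexpressing mutant BCL-2 were seeded and pre-incubated 4 h (G101V, F104L) or 24 h (D103E, D103Y), then exposed to compound at 1.5–10000 nM for 120 h (G101V, F104L) or 72 h (D103E, D103Y) at 37 °C. Viability was read by MTS absorbance at 490 nm after 2 h; IC50 fitted.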

[3] = Pharmacokinetics assay in rats; type: in vivo; conditions: rat, male Sprague-Dawley rats, po, 5 mg/kg, plasma
Description: The purpose of this study was to determine the pharmacokinetics of Examples in male Sprague-Dawley rats (Supplied by Beijing Vital River Laboratory Animal Technology Co., Ltd.) following a single intravenous bolus injection at 1 mg/kg and oral gavage (PO) administration at 5 mg/kg.
Animals in Group 1 were administered with Examples by single intravenous bolus injection at 1 mg/kg, which was formulated in 10% DMSO (Sigma, Batch #LPCOS181): 60% PEG400 (Sigma, Batch #MKCH6281): 30% water, pH 5-6 at 1 mg/mL as a solution. Animals in Group 2 were administered with Examples by single oral gavage (PO) administration at 5 mg/kg, which was formulated in 10% DMSO (Sigma, Batch #BCCD6641): 60% PEG400 (Sigma, Batch #MKCL4921): 30% water at 1 mg/mL as a solution. Blood samples were collected at 0.083, 0.25, 0.5, 1, 2, 4, 8, 12 and 24 hours post-dose. Concentrations of Examples in plasma were determined by LC/MS/MS (LC: Waters UPLC; MS: Triple Quad 6500 plus).

[4] = tested on: RS4;11-BCL-2 D103E cells; test: Cell proliferation assay (MTS), RS4;11-BCL-2 D103E engineered cells; type: cell-based; conditions: Homo sapiens, 72 h, read-out: RS4, 11 BCL2-D103E IC50
In short: as §1

[5] = tested on: RS4;11-BCL-2 G101V cells; test: Cell proliferation assay (MTS), RS4;11-BCL-2 G101V engineered cells; type: cell-based; conditions: Homo sapiens, 120 h, read-out: RS4, 11 BCL2-G101V IC50
In short: as §1

[6] = tested on: RS4;11-BCL-2 D103Y cells; test: Cell proliferation assay (MTS), RS4;11-BCL-2 D103Y engineered cells; type: cell-based; conditions: Homo sapiens, 72 h, read-out: RS4, 11 BCL2-D103Y IC50
Text: MTS testing kit was purchased from Promega (Madison, WI, USA). The RPMI-1640, Fetal bovine serum and Penicillin-Streptomycin were purchased from BI (Biological Industries, Beit Haemek, Israel). Puromycin was purchased from Beyotime (shanghai, China). Dimethyl sulfoxide (DMSO) was purchased from Sigma (St. Louis., MO, USA). RS4;11-BCL-2 G101V (Cobioer Lot. #: CBD2021063013P4), RS4;11-BCL-2 D103E (Cobioer Lot. #: CBD2021063013P4), RS4;11-BCL-2 D103Y (Cobioer Lot. #: CBD2022012101P4) and RS4;11-BCL-2 F104L (Cobioer Lot. #: CBD2021063014P4) cells were cultured in RPMI1640 supplemented with 1 ug/mL puromycin, 100 U/mL Penicillin-Streptomycin and 10% FBS.
To investigate whether a compound is able to inhibit the activity of BCL-2 mutation in cells, a mechanism-based assay using engineered cell lines stably overexpressing BCL-2 mutation (RS4;11-BCL-2 G101V, RS4;11-BCL-2 D103E, RS4;11-BCL-2 D103Y, and RS4;11-BCL-2 F104L) was developed. In this assay, the inhibition of BCL-2 mutation was reflected by the inhibition of cell proliferation of engineered RS4;11 cells. Cells were plated into 96-well plates at optimized cell density (RS4;11-BCL-2 G101V: 5000 cells/well; RS4;11-BCL-2 D103E: 7500 cells/well; RS4;11-BCL-2 D103Y: 7500 cells/well; RS4;11-BCL-2 F104L: 5000 cells/well). Plates were incubated at 37° C., with 5% CO2 for 4 h (RS4;11-BCL-2 G101V, RS4;11-BCL-2 F104L) and 24 h (RS4;11-BCL-2 D103E, RS4;11-BCL-2 D103Y), respectively. Compounds were serially diluted and added to the plates with the final concentrations of 10000, 3333.3, 1111.1, 370.4, 123.5, 41.2, 13.7, 4.6 and 1.5 nM. Plates were incubated at 37° C., with 5% CO2 for 120 h (RS4; 11-BCL-2 G101V, RS4; 11-BCL-2 F104L) and 72 h (RS4;11-BCL-2 D103E, RS4;11-BCL-2 D103Y), respectively. 20 μl MTS was added into each well and the plates were incubated at 37° C., with 5% CO2 exactly for 2 h. The absorbance was measured by a microplate reader at 490 nm. IC50 values were calculated using GraphPad Prism 8.0 software.

Question: Which results are given for `COc1nc2[nH]cc(F)c2cc1Oc1cc(N2CCC3(CC2)CC(N2CCN(Cc4ccc(OC(F)F)cc4)C[C@H]2c2ccccc2C(C)C)C3)ccc1C(=O)NS(=O)(=O)c1cnc(NC[C@H]2CC[C@](C)(O)CC2)c([N+](=O)[O-])c1` [Example 344, 4-(2-((R)-4-(4-(difluoromethoxy)benzyl)-2-(2-isopropylphenyl)piperazin-1-yl)-7-azaspiro[3.5]nonan-7-yl)-2-((3-fluoro-6-methoxy-1H-pyrrolo[2,3-b]pyridin-5-yl)oxy)-N-((6-((((1r,4r)-4-hydroxy-4-methylcyclohexyl)methyl)amino)-5-nitropyridin-3-yl)sulfonyl)benzamide]?
Answer: IC50 [1]: 1 nM; IC50 [2]: 1 nM; AUC(0-t) [3]: 5910 ng·h/mL; half-life [3]: 28.9 h; Cmax ([3]; read-out: Cmax/C0): 406 ng/mL; IC50 [4]: 1 nM; IC50 [5]: 1 nM; IC50 [6]: 10 nM
